Assay results published in patent US20070249701A1, “Cyclic amine CCR5 receptor antagonists” (TEIJIN LIMITED, priority 1999, published 2007).

Target: T1, human CCR5 (Homo sapiens, UniProt P51681)
T1 construct: expressed in transfected cells; host or cells: CHO cells
Assay: Inhibition of binding of [125I]-labeled MIP-1β to membrane fraction of CHO cells expressing human CCR5
Details: at a concentration of 10 μM, [125I]-MIP-1β 0.1 to 0.5 nM, read-out: inhibitory activity against binding of human MIP-1β to the membrane fraction of the cells expressing CCR5, Inhibition(%)
Procedure: Measurement of Inhibitory Activity of a Compound Against Binding of [^125I]-Labeled MIP-1β to Membrane Fraction of the Cells Expressing CCR5
To a 96-well plate made of polystyrene, were respectively added 20 μL of a solution prepared by diluting each test compound with an assay buffer (50 mM HEPES, pH 7.4, 5 mM MgCl2, 1 mM CaCl2, 0.2% BSA), 25 μL of a solution obtained by diluting [^125I]-labeled MIP-1β (NEN Life Science Products, Inc.) with the assay buffer so as to provide 0.1 to 0.5 nM and 155 μL (including 4 μg of the membrane fraction) of a suspension prepared by suspending a membrane fraction of CHO cells expressing human CCR5 (the final volume of the reaction solution: 200 μL). […]
After completing the reaction, the reaction suspension was filtered through Filtermate (Packard Instrument Co.), and the filter washed with 250 μL of a precooled washing buffer (10 mM HEPES, pH 7.4, 0.5 M NaCl) nine times. […] The radioactivity was counted using TopCount NXT (Packard Instrument Co.).
The count when 0.2 μM of human MIP-1α instead of the test compound was added was subtracted as nonspecific binding, and the count when the test compound was not added was taken as 100%. Thereby, the inhibitory activity of the test compound against binding of the human MIP-1β to the membrane fraction of the cells expressing CCR5 was calculated. […]

T1 sequence (P51681 whole entry): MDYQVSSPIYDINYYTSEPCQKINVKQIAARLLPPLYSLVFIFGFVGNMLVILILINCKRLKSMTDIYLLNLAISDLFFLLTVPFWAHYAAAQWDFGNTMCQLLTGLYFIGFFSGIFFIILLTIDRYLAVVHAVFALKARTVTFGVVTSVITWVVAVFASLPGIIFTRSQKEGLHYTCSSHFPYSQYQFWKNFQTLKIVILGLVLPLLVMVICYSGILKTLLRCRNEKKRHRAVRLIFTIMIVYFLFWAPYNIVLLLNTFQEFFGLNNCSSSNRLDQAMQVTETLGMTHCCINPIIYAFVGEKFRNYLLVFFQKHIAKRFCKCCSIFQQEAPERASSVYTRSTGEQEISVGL

Work on `O=C(CNC(=O)c1cccc(SC(F)(F)F)c1)N[C@@H]1CCN(Cc2ccc(Cl)cc2)C1` [Compd. No. 1606, (R)-1-(4-chlorobenzyl)-3-[{N-(3-(trifluoromethylthio)benzoyl)glycyl}amino]pyrrolidine] yielded an inhibition at 10 µM of 20 to 50%.
